# Calls of active or inactive are those of the source. No cut-off for these calls is given here.
# Legend:
# [1] = target: Glycogen synthase kinase-3 beta (Homo sapiens) (UniProt P49841); assay: Inhibition of recombinant human full length N-terminal GST/His6-tagged GSK3-beta (M1 to T420) expressed in Sf9 insect cells at 20 nM using phosphatidylserine as substrate incubated for 60 mins in presence of [33P]-ATP by scintillation counting method
# [2] = Protein binding in Sprague-Dawley rat plasma; type: ADME, cell-free; details: read-out: PPB (converted)
# [3] = target: Serine/threonine-protein kinase pim-2 (Homo sapiens) (UniProt Q9P1W9); assay: Inhibition of recombinant human full length N-terminal GST/His6-tagged PIM2 (M1 to P311) expressed in baculovirus infected Sf9 insect cells at 20 nM using phosphatidylserine as substrate incubated for 60 mins in presence of [33P]-ATP by scintillation counting method
# [4] = target: Serine/threonine-protein kinase Chk2 (Homo sapiens) (UniProt O96017); assay: Inhibition of CHK2 (unknown origin) at 20 nM using phosphatidylserine as substrate incubated for 60 mins in presence of [33P]-ATP by scintillation counting method
# [5] = target: Insulin receptor (Homo sapiens) (UniProt P06213); assay: Inhibition of recombinant human N-terminal GST/His6-tagged INS-R C-terminal (G989 to S1382) expressed in Sf9 insect cells at 20 nM using phosphatidylserine as substrate incubated for 60 mins in presence of [33P]-ATP by scintillation counting method
# [6] = target: Tyrosine-protein kinase Lck (Homo sapiens) (UniProt P06239); assay: Inhibition of recombinant human full length N-terminal GST/His6-tagged LCK (M1 to P509) expressed in Sf9 insect cells at 20 nM using phosphatidylserine as substrate incubated for 60 mins in presence of [33P]-ATP by scintillation counting method
# [7] = target: Tyrosine-protein kinase Lyn (Homo sapiens) (UniProt P07948); assay: Inhibition of recombinant human full length N-terminal GST/His6-tagged LYN (M1 to P512) expressed in Sf9 insect cells at 20 nM using phosphatidylserine as substrate incubated for 60 mins in presence of [33P]-ATP by scintillation counting method
# Rattus norvegicus [8] = assay: Unbound drug level in plasma of CFA induced Sprague-Dawley rat at 0.8 mg/kg, po after 1 hr; type: ADME, organism-based; details: in vivo
# [9] = target: Interleukin-1 receptor-associated kinase 4 (Homo sapiens) (UniProt Q9NWZ3); assay: Inhibition of recombinant human IRAK4 C-terminal (A104 to S460) expressed in Sf9 insect cells at 20 nM using phosphatidylserine as substrate incubated for 60 mins in presence of [33P]-ATP by scintillation counting method
# [10] = target: Calcium/calmodulin-dependent protein kinase type II subunit delta (Homo sapiens) (UniProt Q13557); assay: Inhibition of CAMK2D (unknown origin) at 20 nM using calmodulin as substrate incubated for 60 mins in presence of [33P]-ATP by scintillation counting method
# Rattus norvegicus [11] = assay: Antinociceptive activity in CFA induced thermal hypersensitivity Sprague-Dawley rat model assessed as increase in paw withdrawal latency at 20 mg/kg, po after 1 hr; type: functional, organism-based
# [12] = target: Tyrosine-protein kinase ABL1 (Homo sapiens) (UniProt P00519); assay: Inhibition of recombinant human N-terminal GST/His6-tagged ABL1 wt internal (P118 to S535) expressed in Sf9 insect cells at 20 nM using phosphatidylserine as substrate incubated for 60 mins in presence of [33P]-ATP by scintillation counting method
# [13] = target: RAC-alpha serine/threonine-protein kinase (Homo sapiens) (UniProt P31749); assay: Inhibition of recombinant human N-terminal GST/His6-tagged and C-terminal His6-tagged AKT1(V106 to A480) expressed in Sf9 insect cells at 20 nM using phosphatidylserine as substrate incubated for 60 mins in presence of [33P]-ATP by scintillation counting method
# [14] = target: Ribosomal protein S6 kinase alpha-1 (Homo sapiens) (UniProt Q15418); assay: Inhibition of RPS6KA1 (unknown origin) at 20 nM using phosphatidylserine as substrate incubated for 60 mins in presence of [33P]-ATP by scintillation counting method
# [15] = target: Protein kinase C theta type (Homo sapiens) (UniProt Q04759); assay: Inhibition of recombinant human full length N-terminal GST and C-terminal His6-tagged PKC-theta (M1 to S706) expressed in Sf9 insect cells at 20 nM using phosphatidylserine as substrate incubated for 60 mins in presence of [33P]-ATP by scintillation counting method
# [16] = target: Mitogen-activated protein kinase 3 (Homo sapiens) (UniProt P27361); assay: Inhibition of recombinant human full length N-terminal GST/His6-tagged ERK1 (M1 to P379) expressed in Escherichia coli at 20 nM using phosphatidylserine as substrate incubated for 60 mins in presence of [33P]-ATP by scintillation counting method
# [17] = target: MAP kinase-activated protein kinase 5 (Homo sapiens) (UniProt Q8IW41); assay: Inhibition of recombinant human full length MAPKAPK5 (M1 to Q471) expressed in Escherichia coli at 20 nM using phosphatidylserine as substrate incubated for 60 mins in presence of [33P]-ATP by scintillation counting method
# [18] = Unbound drug level in brain of CFA induced Sprague-Dawley rat at 20 mg/kg, po after 1 hr; type: ADME, organism-based; details: in vivo
# [19] = Unbound drug level in brain of CFA induced Sprague-Dawley rat at 0.8 mg/kg, po after 1 hr; type: ADME, organism-based; details: in vivo, BLD = below limit of detection
# [20] = Cmax in Sprague-Dawley rat at 5 mg/kg, po; type: ADME, organism-based; set-up: dose 5 mg/kg, route oral; details: in vivo
# [21] = target: Mitogen-activated protein kinase 14 (Homo sapiens) (UniProt Q16539); assay: Inhibition of recombinant human full length p38-alpha (M1 to S360) expressed in Escherichia coli at 20 nM using phosphatidylserine as substrate incubated for 60 mins in presence of [33P]-ATP by scintillation counting method
# [22] = target: Proto-oncogene tyrosine-protein kinase Src (Homo sapiens) (UniProt P12931); assay: Inhibition of recombinant human full length N-terminal GST and C-terminal His6-tagged SRC (M1 to L536) expressed in Sf9 insect cells at 20 nM using phosphatidylserine as substrate incubated for 60 mins in presence of [33P]-ATP by scintillation counting method
# [23] = Solubility of test compound; type: physicochemical
# Rattus norvegicus [24] = assay: Antinociceptive activity in CFA induced thermal hypersensitivity Sprague-Dawley rat model assessed as increase in paw withdrawal latency at 0.8 mg/kg, po after 1 hr; type: functional, organism-based
# [25] = Toxicity in CFA induced Sprague-Dawley rat assessed as increase in weight gain at 20 mg/kg, po and measured up to 3 days; type: organism-based; details: in vivo, 72 h
# Rattus norvegicus [26] = assay: Unbound drug level in plasma of CFA induced Sprague-Dawley rat at 4 mg/kg, po after 1 hr; type: ADME, organism-based; details: in vivo
# [27] = Toxicity in CFA induced Sprague-Dawley rat assessed as increase in weight gain at 100 mg/kg, po and measured up to 3 days; type: organism-based; details: in vivo, 72 h
# Chain of MAP kinase-activated protein kinase 5 (Homo sapiens) (Q8IW41 whole entry): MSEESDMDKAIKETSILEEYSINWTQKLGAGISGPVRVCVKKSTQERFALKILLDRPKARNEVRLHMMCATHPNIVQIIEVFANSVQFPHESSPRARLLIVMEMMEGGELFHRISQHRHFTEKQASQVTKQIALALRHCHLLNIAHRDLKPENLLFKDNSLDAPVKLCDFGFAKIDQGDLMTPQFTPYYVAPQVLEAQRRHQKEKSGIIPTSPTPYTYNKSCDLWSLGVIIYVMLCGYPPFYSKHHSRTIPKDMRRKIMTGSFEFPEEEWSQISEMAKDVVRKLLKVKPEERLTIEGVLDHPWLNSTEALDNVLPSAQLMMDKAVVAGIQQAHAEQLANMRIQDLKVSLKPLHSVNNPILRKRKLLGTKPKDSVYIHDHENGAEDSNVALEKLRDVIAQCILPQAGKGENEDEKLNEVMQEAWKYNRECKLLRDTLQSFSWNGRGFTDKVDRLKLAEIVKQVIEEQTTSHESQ
# Chain of Serine/threonine-protein kinase Chk2 (Homo sapiens) (O96017 whole entry): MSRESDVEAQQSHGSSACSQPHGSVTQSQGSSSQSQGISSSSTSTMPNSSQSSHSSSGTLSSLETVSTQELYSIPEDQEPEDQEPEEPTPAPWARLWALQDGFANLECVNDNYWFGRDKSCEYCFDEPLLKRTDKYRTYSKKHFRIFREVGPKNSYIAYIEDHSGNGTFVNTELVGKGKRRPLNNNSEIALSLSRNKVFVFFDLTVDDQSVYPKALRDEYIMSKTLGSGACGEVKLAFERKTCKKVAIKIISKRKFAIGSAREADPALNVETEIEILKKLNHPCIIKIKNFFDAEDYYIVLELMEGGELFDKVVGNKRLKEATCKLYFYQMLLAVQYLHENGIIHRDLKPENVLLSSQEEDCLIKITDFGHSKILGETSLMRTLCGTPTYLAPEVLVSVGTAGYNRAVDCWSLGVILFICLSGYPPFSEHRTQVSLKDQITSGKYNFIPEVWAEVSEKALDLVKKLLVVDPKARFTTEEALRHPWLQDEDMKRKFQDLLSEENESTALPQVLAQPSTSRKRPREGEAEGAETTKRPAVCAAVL
# Chain of Tyrosine-protein kinase Lyn (Homo sapiens) (P07948 2-512 limits assumed): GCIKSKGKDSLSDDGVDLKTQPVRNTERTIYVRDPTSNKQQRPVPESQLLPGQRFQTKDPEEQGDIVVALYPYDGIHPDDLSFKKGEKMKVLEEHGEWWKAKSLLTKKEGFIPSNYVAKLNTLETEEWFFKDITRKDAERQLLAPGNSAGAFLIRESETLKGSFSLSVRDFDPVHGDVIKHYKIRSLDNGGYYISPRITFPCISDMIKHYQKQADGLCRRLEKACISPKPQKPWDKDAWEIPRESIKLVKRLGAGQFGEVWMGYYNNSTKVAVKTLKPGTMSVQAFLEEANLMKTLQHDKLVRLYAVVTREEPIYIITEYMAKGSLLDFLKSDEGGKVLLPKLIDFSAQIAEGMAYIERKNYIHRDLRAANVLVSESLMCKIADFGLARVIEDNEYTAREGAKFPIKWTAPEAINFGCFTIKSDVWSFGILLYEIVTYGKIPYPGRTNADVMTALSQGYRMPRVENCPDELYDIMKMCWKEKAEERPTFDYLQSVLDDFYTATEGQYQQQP
# Chain of Proto-oncogene tyrosine-protein kinase Src (Homo sapiens) (P12931 2-536 limits assumed): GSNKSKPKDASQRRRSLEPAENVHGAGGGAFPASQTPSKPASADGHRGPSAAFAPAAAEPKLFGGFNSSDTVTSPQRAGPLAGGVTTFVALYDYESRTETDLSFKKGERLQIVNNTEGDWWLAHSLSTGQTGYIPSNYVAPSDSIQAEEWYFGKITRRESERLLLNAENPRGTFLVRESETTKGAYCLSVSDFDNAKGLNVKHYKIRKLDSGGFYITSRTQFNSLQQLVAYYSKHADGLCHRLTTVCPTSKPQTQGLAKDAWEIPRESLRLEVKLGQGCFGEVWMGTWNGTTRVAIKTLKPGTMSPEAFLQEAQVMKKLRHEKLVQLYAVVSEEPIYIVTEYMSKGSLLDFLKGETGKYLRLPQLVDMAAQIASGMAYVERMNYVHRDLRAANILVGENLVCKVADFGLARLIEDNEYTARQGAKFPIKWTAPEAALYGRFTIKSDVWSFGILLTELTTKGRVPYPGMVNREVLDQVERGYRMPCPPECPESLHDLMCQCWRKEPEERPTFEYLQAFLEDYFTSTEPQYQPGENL
# Chain of Glycogen synthase kinase-3 beta (Homo sapiens) (P49841 whole entry, looked up): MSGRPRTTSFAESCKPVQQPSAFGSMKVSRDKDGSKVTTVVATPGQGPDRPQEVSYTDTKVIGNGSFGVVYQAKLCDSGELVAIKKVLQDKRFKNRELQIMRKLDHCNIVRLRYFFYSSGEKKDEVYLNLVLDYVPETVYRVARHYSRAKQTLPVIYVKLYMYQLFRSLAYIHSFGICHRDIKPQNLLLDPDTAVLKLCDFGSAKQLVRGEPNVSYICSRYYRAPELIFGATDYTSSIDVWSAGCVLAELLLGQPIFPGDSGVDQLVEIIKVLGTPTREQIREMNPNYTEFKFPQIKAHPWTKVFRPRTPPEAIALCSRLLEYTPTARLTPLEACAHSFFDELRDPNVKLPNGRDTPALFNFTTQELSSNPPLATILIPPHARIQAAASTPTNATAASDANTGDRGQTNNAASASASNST
# Chain of Tyrosine-protein kinase ABL1 (Homo sapiens) (P00519 whole entry): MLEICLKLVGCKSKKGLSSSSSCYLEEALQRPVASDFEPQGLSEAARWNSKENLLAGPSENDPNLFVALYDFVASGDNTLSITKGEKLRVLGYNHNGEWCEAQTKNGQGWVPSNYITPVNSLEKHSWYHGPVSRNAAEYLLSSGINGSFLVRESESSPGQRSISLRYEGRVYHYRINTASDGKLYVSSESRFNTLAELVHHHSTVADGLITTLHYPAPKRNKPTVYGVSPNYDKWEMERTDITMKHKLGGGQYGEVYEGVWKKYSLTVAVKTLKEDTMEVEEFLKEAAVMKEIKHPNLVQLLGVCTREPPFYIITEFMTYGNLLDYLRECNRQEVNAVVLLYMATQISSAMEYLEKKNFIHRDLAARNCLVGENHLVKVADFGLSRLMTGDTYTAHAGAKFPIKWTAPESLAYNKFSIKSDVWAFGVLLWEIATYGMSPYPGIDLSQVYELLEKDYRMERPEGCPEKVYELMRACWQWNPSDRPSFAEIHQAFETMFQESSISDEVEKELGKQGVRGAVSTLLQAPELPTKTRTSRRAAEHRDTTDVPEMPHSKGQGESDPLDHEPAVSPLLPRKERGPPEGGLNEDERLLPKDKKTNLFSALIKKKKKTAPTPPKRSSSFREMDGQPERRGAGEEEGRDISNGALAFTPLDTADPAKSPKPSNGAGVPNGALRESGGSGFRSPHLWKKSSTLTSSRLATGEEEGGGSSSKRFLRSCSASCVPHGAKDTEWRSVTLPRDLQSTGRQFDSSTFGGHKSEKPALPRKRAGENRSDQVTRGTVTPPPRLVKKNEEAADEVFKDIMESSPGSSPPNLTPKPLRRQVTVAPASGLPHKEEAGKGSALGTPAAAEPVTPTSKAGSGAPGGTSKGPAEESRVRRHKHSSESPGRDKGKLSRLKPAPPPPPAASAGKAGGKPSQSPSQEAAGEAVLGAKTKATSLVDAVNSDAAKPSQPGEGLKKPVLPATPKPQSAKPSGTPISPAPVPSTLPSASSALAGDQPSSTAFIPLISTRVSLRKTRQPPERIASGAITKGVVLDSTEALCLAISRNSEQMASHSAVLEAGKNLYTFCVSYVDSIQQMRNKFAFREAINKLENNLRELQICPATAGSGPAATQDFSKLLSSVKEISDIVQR
# Chain of Mitogen-activated protein kinase 14 (Homo sapiens) (Q16539 whole entry): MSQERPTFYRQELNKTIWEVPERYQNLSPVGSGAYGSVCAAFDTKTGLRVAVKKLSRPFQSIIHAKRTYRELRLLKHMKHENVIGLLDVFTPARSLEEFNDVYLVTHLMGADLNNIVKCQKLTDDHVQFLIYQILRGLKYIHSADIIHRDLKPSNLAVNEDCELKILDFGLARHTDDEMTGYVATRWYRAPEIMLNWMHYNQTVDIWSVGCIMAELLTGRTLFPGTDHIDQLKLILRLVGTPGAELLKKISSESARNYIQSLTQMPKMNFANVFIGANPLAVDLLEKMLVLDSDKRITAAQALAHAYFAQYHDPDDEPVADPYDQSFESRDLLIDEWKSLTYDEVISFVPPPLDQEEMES
# Chain of Protein kinase C theta type (Homo sapiens) (Q04759 whole entry, looked up): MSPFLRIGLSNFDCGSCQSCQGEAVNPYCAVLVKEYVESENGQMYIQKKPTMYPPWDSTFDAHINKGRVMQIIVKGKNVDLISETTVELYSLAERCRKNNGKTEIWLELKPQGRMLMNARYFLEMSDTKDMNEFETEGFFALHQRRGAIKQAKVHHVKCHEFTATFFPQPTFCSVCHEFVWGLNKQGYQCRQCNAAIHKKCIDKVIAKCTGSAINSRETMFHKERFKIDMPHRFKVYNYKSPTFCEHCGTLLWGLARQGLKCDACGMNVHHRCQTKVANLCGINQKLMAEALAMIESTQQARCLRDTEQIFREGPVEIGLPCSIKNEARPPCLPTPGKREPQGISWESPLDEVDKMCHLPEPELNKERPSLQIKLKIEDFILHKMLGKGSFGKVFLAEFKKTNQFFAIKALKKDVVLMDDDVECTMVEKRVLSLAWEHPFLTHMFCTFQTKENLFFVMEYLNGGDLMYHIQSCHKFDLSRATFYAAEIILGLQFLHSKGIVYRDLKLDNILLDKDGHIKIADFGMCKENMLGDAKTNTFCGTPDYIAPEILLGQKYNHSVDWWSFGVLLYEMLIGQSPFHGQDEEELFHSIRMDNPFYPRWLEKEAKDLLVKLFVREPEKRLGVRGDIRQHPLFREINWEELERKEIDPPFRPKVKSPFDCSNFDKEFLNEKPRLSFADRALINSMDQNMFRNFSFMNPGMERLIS
# Chain of Serine/threonine-protein kinase pim-2 (Homo sapiens) (Q9P1W9 whole entry, looked up): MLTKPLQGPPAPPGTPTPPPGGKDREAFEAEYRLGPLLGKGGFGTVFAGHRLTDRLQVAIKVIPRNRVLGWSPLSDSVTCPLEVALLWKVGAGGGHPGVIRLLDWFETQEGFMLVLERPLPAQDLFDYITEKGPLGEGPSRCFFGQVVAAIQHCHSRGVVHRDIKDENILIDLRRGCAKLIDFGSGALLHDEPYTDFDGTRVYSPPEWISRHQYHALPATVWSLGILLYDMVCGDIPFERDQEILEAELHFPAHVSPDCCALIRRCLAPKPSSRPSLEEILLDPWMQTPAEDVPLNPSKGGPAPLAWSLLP
smiles,measurement,setting,value
Cn1cc(-c2n[nH]c3ccc(NCc4cc(F)ccc4S(C)(=O)=O)cc23)cn1,inhibition,[1],11%
same,fraction unbound,[2],0.134
same,inhibition,[3],-1%
same,inhibition,[4],-1%
same,inhibition,[5],-7%
same,inhibition,[6],-6%
same,inhibition,[7],-1%
same,Cp(f),Rattus norvegicus [8],4.7 nM
same,inhibition,[9],-8%
same,inhibition,[10],0%
same,Activity,Rattus norvegicus [11],Active
same,inhibition,[12],1%
same,inhibition,[13],6%
same,inhibition,[14],7%
same,inhibition,[15],-2%
same,inhibition,[16],-9%
same,inhibition,[17],6%
same,Drug uptake(free),[18],1.5 nM
same,Drug uptake(free),[19],Bld
same,Cmax,[20],161 nM
same,inhibition,[21],-8%
same,inhibition,[22],2%
same,solubility,[23],141 µM
same,Activity,Rattus norvegicus [24],inactive
same,Activity,[25],Non-Toxic
same,Cp(f),Rattus norvegicus [26],14.9 nM
same,Activity,[27],Toxic

# From ChEMBL document CHEMBL4346729, “The discovery of novel 3-aryl-indazole derivatives as peripherally restricted pan-Trk inhibitors for the treatment of pain” (Bioorg Med Chem Lett, 2019)
